Literature values, collected in PMC4567415 (Nuclear medicine and biology, 2015).
Several values for one entry are separate records, joined by “and”; a condition that tells them apart may be missing. Equal entries are not always repeated. Where two headings read alike, the source gives them in different places.

Key:
[1] = tested on: Pgp
[2] = rats, 60 min
[3] = previously described rhodamine B ester
[4] = previously observed
[5] = tested on: isolated rat cardiomyocytes
[6] = Sprague-Dawley rats, 60 min p.i.

For `CC/N=c1\cc2oc3cc(NCC)c(C)cc3c(-c3ccccc3C(=O)OCC)c-2cc1C` [rhodamine 6G], the “substrate of Pgp” value [1] is listed as “substrate of Pgp”.
In the case of `CC(C)(C)n1ncc(OCc2ccc(COCCF)cc2)c(Cl)c1=O` [BMS-747158-02], the heart-to-blood ratio (30 min p.i.) is listed as 30.0, the heart-to-liver ratio (30 min p.i.) is listed as 2.7 and the liver concentration (30 min p.i.) is listed as 1.27±0.10 % ID/g. The heart-to-liver ratio (120 min p.i.) was 5.4, the liver concentration (120 min p.i.) was 0.63±0.16 % ID/g and the heart concentration [6] was 3.3±0.3 % ID/g. For the same compound, the heart-to-liver ratio [6] was 3.7, the heart concentration (Wistar rats, 60 min p.i.) was 2.06±0.83 % ID/g and the heart-to-liver ratio (Wistar rats, 60 min p.i.) was 5.4.
In the case of `Fc1ccc([P+](c2ccccc2)(c2ccccc2)c2ccccc2)cc1` [BFPET], the heart uptake (Sprague-Dawley rats, 30 min) is given as 1.51±0.04 % ID/g, the liver concentration (Sprague-Dawley rats, 30 min p.i.) is given as 0.18±0.05 % ID/g and the heart uptake [6] is given as 1.57±0.18 % ID/g. The liver concentration [6] was 0.17±0.03 % ID/g.
For `CCN(CC)c1ccc2c(-c3ccccc3C(=O)OCCOCC[18F])c3ccc(N(CC)CC)cc3[o+]c2c1` [[^18F]2], the “Biodistribution of radioactivity, Blood” value [2] is listed as 0.25 ± 0.02 % ID/g, the “Biodistribution of radioactivity, Bone” value [2] is listed as 0.77 ± 0.04 % ID/g and the “Biodistribution of radioactivity, Gut” value [2] is listed as 1.69 ± 0.42 % ID/g. For the same compound, the “Biodistribution of radioactivity, Heart” value [2] was 2.5 % ID/g and 2.51 ± 0.16 % ID/g, the “Biodistribution of radioactivity, Kidney” value [2] was 9.28 ± 0.66 % ID/g and the “Biodistribution of radioactivity, Liver” value [2] was 0.49 ± 0.04 % ID/g. For the same compound, the “Biodistribution of radioactivity, Lung” value [2] was 2.06 ± 0.16 % ID/g, the “Biodistribution of radioactivity, Muscle” value [2] was 0.54 ± 0.07 % ID/g and the “Biodistribution of radioactivity, Skin” value [2] was 0.36 ± 0.04 % ID/g. The “Biodistribution of radioactivity, Spleen” value [2] was 3.53 ± 0.57 % ID/g, the Heart/blood tissue ratio [2] was 10.0 and the Heart/bone tissue ratio [2] was 3.3. For the same compound, the Heart/liver tissue ratio [2] was 5.1, the Heart/lung tissue ratio [2] was 1.2 and the LogD [3] was 1.90 ± 0.01. The “stability in mouse serum” value [4] was “instability”, the “initial activity internalized into rat cardiomyocytes” value ([5]; 1 min incubation) was 3.9±0.8% and the “initial activity internalized into rat cardiomyocytes” value ([5]; 60 min incubation) was 43.1±7.7%.
